From article PMC8518391, “Synthesis and Biological Evaluation of Dantrolene‐Like Hydrazide and Hydrazone Analogues as Multitarget Agents for Neurodegenerative Diseases” (Chemmedchem, 2021)

Experiments:
[1] = Hydrolytic stability in buffered solution (PBS pH 7.4, 37 °C); assay type: physicochemical; settings: 20 μM in 10 mM PBS pH 7.4, 37 °C, 6 h incubation
Procedure: The hydrolytic stability of some representative imino/hydrazone/hydrazide derivatives was determined in buffered aqueous media. […]. […]. The hydrolytic degradation of 9 in its starting reagents was confirmed by the comparison of the chromatograms of 9 and 2‐chloro‐4‐hydroxyaniline, obtained in the same chromatographic conditions (Figure 6B).
Stability studies in buffered solution were performed following an already described procedure,[23] on a Phenomenex C18 column (150×4.6 mm i.d., 3 μm particle size; Phenomenex, Castel Maggiore, Italy) using a mobile phase consisting of a mixture of methanol‐water (75 : 25 v/v, with aqueous formic acid 0.1 %). The used flow rate was 0.500 mL/min while the injection volume was 20 μL. Wavelength of UV‐Vis detector was adjusted at 254 nm. The chemical stability was evaluated in a phosphate buffer solution pH 7.4 (10 mM HPO4 ^2−/H2PO4 ^−; 100 mM NaCl) at 37 °C. Five different concentrations from 0.5 μM to 20 μM were studied in a 2 h time range (data not shown). Each concentration (0.5, 1, 5, 10 and 20 μM) was tested in triplicate starting from 3 different stocks solution (1 mM) prepared separately. The time range was extended to 6 h only for the samples at 20 μM concentration (Figure 6a).

hMAO B = target: T1, hMAO B (Homo sapiens, UniProt P27338); experiment: biochemical; assay type: biochemical; settings: for inhibition at 10 µM: read-out: % inhibition at 10 μM hMAO B
T1 construct: purchased Sigma Aldrich
T1 sequence (P27338 1-520): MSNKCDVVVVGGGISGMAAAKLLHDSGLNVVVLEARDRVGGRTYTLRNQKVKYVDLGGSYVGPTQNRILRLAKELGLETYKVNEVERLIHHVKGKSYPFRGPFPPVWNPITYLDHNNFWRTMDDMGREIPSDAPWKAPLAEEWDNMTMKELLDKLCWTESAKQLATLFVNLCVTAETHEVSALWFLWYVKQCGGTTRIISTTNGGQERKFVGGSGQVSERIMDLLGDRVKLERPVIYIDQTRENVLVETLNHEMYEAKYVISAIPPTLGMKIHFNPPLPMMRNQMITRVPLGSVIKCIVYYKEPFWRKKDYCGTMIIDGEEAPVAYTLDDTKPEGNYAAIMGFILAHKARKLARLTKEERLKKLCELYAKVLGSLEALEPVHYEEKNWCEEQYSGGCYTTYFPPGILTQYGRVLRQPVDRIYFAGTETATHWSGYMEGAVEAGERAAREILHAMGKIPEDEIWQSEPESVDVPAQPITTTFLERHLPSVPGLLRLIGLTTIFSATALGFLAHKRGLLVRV

hAChE = target: T2, hAChE (Homo sapiens, UniProt P22303); experiment: biochemical; settings: for inhibition at 10 µM: read-out: % inhibition at 10 μM hAChE
T2 construct: purchased Sigma Aldrich
T2 sequence (P22303 32-614): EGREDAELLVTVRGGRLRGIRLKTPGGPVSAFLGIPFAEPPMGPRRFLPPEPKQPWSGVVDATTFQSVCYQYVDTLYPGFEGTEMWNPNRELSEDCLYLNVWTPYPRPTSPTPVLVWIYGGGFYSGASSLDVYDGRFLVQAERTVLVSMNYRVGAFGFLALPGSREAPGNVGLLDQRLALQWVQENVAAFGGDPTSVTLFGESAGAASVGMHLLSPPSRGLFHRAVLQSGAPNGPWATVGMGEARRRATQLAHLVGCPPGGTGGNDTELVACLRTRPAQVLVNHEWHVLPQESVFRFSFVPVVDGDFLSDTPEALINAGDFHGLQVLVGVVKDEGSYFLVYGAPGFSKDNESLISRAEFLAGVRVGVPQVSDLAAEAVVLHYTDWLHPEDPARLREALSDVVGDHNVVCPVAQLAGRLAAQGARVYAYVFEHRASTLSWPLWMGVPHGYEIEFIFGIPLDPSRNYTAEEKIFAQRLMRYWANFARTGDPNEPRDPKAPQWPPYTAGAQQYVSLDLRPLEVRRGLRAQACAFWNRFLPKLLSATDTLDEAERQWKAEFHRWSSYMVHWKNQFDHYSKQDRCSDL
Text: (§1) Readings were made with Infinite M1000 Pro plate reader (Tecan, Cernusco s.N., Italy) and statistical regressions with Prism software (GraphPad Prism version 5.00 for Windows, GraphPad Software, San Diego, CA, USA).

hMAO A = target: T3, hMAO A (Homo sapiens, UniProt P21397); experiment: biochemical; settings: for inhibition at 10 µM: read-out: % inhibition at 10 μM hMAO A
T3 construct: purchased Sigma Aldrich
T3 sequence (P21397 1-527): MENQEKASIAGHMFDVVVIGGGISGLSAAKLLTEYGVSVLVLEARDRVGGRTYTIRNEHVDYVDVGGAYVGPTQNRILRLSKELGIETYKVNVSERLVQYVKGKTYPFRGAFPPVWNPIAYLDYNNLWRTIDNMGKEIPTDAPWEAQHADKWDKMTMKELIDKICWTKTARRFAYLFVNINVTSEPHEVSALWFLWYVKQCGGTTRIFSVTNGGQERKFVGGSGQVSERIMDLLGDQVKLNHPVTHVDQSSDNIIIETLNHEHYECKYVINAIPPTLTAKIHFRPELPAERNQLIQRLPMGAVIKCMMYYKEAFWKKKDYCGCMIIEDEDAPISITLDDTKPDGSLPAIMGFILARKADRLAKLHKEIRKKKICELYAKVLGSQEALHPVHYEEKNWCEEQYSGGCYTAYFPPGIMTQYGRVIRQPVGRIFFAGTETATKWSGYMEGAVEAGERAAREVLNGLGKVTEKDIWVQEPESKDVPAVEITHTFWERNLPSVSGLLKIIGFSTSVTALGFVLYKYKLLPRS
Text: as §1

[2] = RP-HPLC lipophilicity index log k’; assay type: physicochemical; settings: MeOH/phosphate buffer pH 7.4; methanol/PBS 60:40 v/v
Text: To investigate a possible correlation between MAO inhibitory potency and lipophilicity,[7] we calculated log P with three different programs (ChemDraw 15.0; ALOG PS 2.1; ChemSketch 2017, see Table S1 in Supporting Information) and compared the calculated values with experimental lipophilicity indexes as assessed by reversed‐phase (RP) HPLC in isocratic conditions for the majority of compounds. The log of capacity factors (log k’) measured by RP‐HPLC using a mixture of methanol/PBS (60 : 40, v/v) as the mobile phase are reported in Tables 1 and 2, along with Clog P values calculated with ChemDraw. These calculated lipophilicity descriptors correlated with the experimental log k’ values (n=13, r ^2=0.901) better than the other log Ps calculated by ALOG PS and ChemSketch computational tools (r ^2 equal 0.705 and 0.568, respectively). As shown by the scatter plots in Figure 4 and Figure S1 in Supporting Information, there is no evident correlation trend between MAO A/B inhibition data and lipophilicity calculated by the expert system implemented in ChemDraw for compounds achieving finite IC50 values.
Log k’ values (k’=(tr‐t0)/t0) and purity determinations were carried out using a Phenomenex Gemini C18 4.6×150 mm, with 3 μm size particles, built on a Waters double pump HPLC system in isocratic conditions. Injection volumes were 10 μL, flow rate was 0.5 mL/min, and detection was performed with UV (λ=254 and 370 nm). Samples were prepared by dissolving 0.1 mg/mL of the solute in 10 % v/v DMSO and 90 % v/v methanol. Retention times (tr) were measured at least from three separate injections, and dead time (t0) was the retention time of deuterated methanol. The mobile phase was filtered through a Supelco Nylon‐66 membrane 0.45 μm (Merck Life Science Srl, Milan, Italy) before use. For each reference compound, the average tr of three consecutive injections of 10 μL of sample was used to calculate the log k’ values. The eluent consisted of five different mixtures of methanol and PBS buffer 10 mM at pH 7.4, with methanol/buffer ratios ranging from 80 : 20 to 60 : 40 v/v.

Row | Compound | hydrolytic stability [1] | IC50 (hMAO B) [µM] | inhibition at 10 µM (hAChE) [%] | IC50 (hMAO A) [µM] | log k’ (logarithm of capacity factor, RP-HPLC) [2] | inhibition at 10 µM (hMAO B) [%] | IC50 (hAChE) [µM] | inhibition at 10 µM (hMAO A) [%] | % inhibition at 10 μM hMAO B (hMAO B; 10 μM)
1 | N#Cc1ccc(-c2ccc(C=NNC(=O)c3cccs3)o2)cc1 [Compound 4, N ′‐((5‐(4‐cyanophenyl)furan‐2‐yl)methylene)thiophene‐2‐carbohydrazide] | substantial stability | 2.63 ± 0.42 | 51 | 1.46 ± 0.21 | – | – | – | – | –
2 | O=C(N/N=C/c1ccco1)c1cccs1 [Compound 15] | – | – | – | – | −0.010 | 13 | 7.18 ± 0.07 | 16 | –
3 | O=C(N/N=C/c1ccc(-c2ccc([N+](=O)[O-])cc2)o1)c1ccncc1 [Compound 2] | – | 3.56 ± 0.36 | 30 | 7.89 ± 1.1 | 0.522 | – | – | – | –
4 | COc1ccc(N/N=C/c2ccc(-c3ccc(C#N)cc3)o2)cc1 [Compound 10] | – | – | – | – | – | 29 | – | 47 | –
5 | CN1CCN(N=Cc2ccco2)CC1 [Compound 16, 1‐(Furan‐2‐yl)‐N‐(4‐methylpiperazin‐1‐yl)methanimine] | – | – | 21 | – | – | 13 | – | 18 | –
6 | O=C(NN=Cc1ccc(-c2ccc([N+](=O)[O-])cc2)o1)c1cccs1 [Compound 1, N ′‐((5‐(4‐nitrophenyl)furan‐2‐yl)methylene)thiophene‐2‐carbohydrazide] | – | 3.67 ± 0.92 | 40 | – | 0.947 | – | – | 33 | –
7 | O=C(Cc1ccccc1)NN=Cc1ccco1 [Compound 17, N ′‐((furan‐2‐yl)methylidene)‐2‐phenylacetohydrazide] | – | – | 52 | – | – | 22 | – | 22 | –
8 | COc1cc(C=NN2CC(=O)NC2=O)cc(OC)c1OC [Compound 21, 1‐(((3,4,5‐trimethoxyphenyl)methylidene)amino)imidazolidine‐2,4‐dione] | – | – | 28 | – | – | 18 | – | 8 | –
9 | N#Cc1ccc(-c2ccc(/C=N/Nc3ccc(S(N)(=O)=O)cc3)o2)cc1 [Compound 12] | – | – | – | 10 ± 1.9 | 0.466 | 28 | 1.67 ± 0.19 | – | –
10 | O=C1CN(/N=C/c2ccco2)C(=O)N1 [Compound 14] | – | – | – | – | −1.018 | – | 9.06 ± 0.45 | 11 | no inhibition
11 | COc1cccc(/C=N/NC(=O)c2ccncc2)c1 [Compound 19] | – | 12.2 ± 1.5 | – | – | 0.129 | – | 11.2 ± 1.6 | 19 | –
12 | CN1CCN(N=Cc2ccc(-c3ccc([N+](=O)[O-])cc3)o2)CC1 [Compound 3, N ‐(4‐methylpiperazin‐1‐yl)‐1‐(5‐(4‐nitrophenyl)furan‐2‐yl)methanimine] | substantial stability | 3.15 ± 0.03 | 44 | 5.61 ± 1.11 | 0.752 | – | – | – | –
13 | N#Cc1ccc(-c2ccc(/C=N/N3CC(=O)NC3=O)o2)cc1 [Compound 7] | – | – | 28 | – | – | 50 | – | 40 | –
14 | COc1cc(C=NNC(=O)c2cccs2)ccc1-c1ccc(C#N)cc1 [Compound 13, N ′‐[(4′‐cyano‐2‐methoxy[1,1′‐biphenyl]‐4‐yl)methylidene]thiophene‐2‐carbohydrazide] | – | 2.32 ± 0.43 | 35 | – | 0.549 | – | – | 29 | –
15 | NS(=O)(=O)c1ccc(NN=Cc2ccco2)cc1 [Compound 18, 4‐(‐2‐((furan‐2‐yl)methylidene)hydrazinyl)benzene‐1‐sulfonamide] | – | – | 27 | – | – | 21 | – | 25 | –
16 | CS(=O)(=O)c1ccc(NN=Cc2ccc(-c3ccc(C#N)cc3)o2)cc1 [Compound 11, 4‐(5‐((2‐(4‐(methylsulfonyl)phenyl)hydrazono)methyl)furan‐2‐yl)benzonitrile] | – | – | 39 | – | – | 28 | – | 11 | –
17 | COc1cccc(C=NNc2ccc(S(N)(=O)=O)cc2)c1 [Compound 20, 4‐(2‐((3‐methoxyphenyl)methylidene)hydrazinyl)benzene‐1‐sulfonamide] | – | 0.81 ± 0.04 | – | – | 0.307 | – | 10.2 ± 1.6 | 42 | –
18 | N#Cc1ccc(-c2ccc(C=NNC(=O)Cc3ccccc3)o2)cc1 [Compound 8, N ′‐((5‐(4‐cyanophenyl)furan‐2‐yl)methylene)‐2‐phenyl‐acetohydrazide] | – | 3.61 ± 0.04 | 16 | 5.51 ± 0.54 | 0.803 | – | – | – | –
19 | N#Cc1ccc(-c2ccc(/C=N/NC(=O)c3ccncc3)o2)cc1 [Compound 5, N ′‐((5‐(4‐cyanophenyl)furan‐yl)methylene)isonicotinohydrazide] | – | 12.6 ± 0.9 | 27 | 6.62 ± 0.71 | 0.312 | – | – | – | –
20 | CC(=O)NN=Cc1ccc(-c2ccc(C#N)cc2)o1 [Compound 6, N ′‐((5‐(4‐cyanophenyl)furan‐2‐yl)methylene)acetohydrazide] | – | 2.65 ± 0.11 | 38 | 4.25 ± 0.45 | 0.236 | – | – | – | –
